Experimental data reported in US4246271A, “4-Phenyl-2-thiazolyl-oxamates useful in the treatment of asthma” (priority 1978, dated 1981).

Legend:
[1] = Solubilities; assay type: physicochemical; details: for Solubility in DMSO: DMSO / dimethyl sulfoxide
[2] = system: rats; assay: Cutaneous passive anaphylaxis test; assay type: in vivo; details: Rattus norvegicus, po; per os, 10 minutes before intravenous injection of antigen + stain; tested at 30, 5, 1 and 0.2 mg/kg, lots of 10 rats; suspension in Tween and water; read-out: ED50 (dose which reduces by one-half the leakage of the stain as compared with the controls)
Experimental: The results are obtained on the cutaneous passive anaphylaxis test in accordance with the method of Broeklehurst W. E. in Handbook of Experimental Immunology, Editor Weiz D. M., Blackwell Scientific Publications, Oxford and Edinborough, pages […] (1967).
(a) Prepare the antiserum on rats sensitized by antigen; inject it intradermally.
(b) Leave a waiting time of 24 to 48 hours.
(c) Administration of the product to be tested per os 10 minutes before operation (d) (intravenous simultaneously with d).
(d) Intravenous injection of the antigen+stain.
(e) Sacrifice 30 minutes afterwards and visualize the antigen-antibody reaction by the leakage of the stain due to the increase of the capillary permeability under the combined influence of histamine and SRSA.
This action is expressed as ED50, i.e., the dose which reduces by one-half the leakage of the stain as compared with the controls.
The tests were carried out in succession with 30, 5, 1 and 0.2 mg/kg on homogeneous lots of 10 rats, with due consideration of their insolubility in water. These compounds are administered in suspension in Tween™ and water.

[3] = Acute toxicity after a single oral administration in mice (Miller & Tainter); assay type: in vivo; details: mouse, in vivo, mice, mortality noted at the end of 7 days, read-out: LD50 approximate
Experimental: (§1) (1) Toxicology (acute toxicity after a single oral administration in mice by the method of Miller & Tainter (Proc. Soc. Exper. Biol. Med., 1944, 57, 261)).
(§2) The products are administered in a suspension of Tween 80+distilled water. The mortality is noted at the end of 7 days. The following table summarizes the results obtained: […]

[4] = system: mice; assay: as above; assay type: in vivo; details: 1000 mg/kg, 10 mice per lot, suspension of Tween 80 + distilled water
Experimental: as §1, §2

Row | Compound | Solubility in ethanol ([1]; ethanol) | Solubility in water [1] | ED50 [2] | LD50 at 168 h [3] | Mortality at end of 7th day [4] | Solubility in dimethyl acetamid ([1]; dimethyl acetamid) | Solubility in ethanol (in words) ([1]; ethanol) | Solubility in methyl pyrrolidone [1] | Solubility in DMSO [1]
1 | Nc1nc(-c2ccc(Cl)cc2)cs1 [4-parachlorophenyl-2-amino-thiazole] | 15% | insoluble |  |  |  |  |  |  | 
2 | CCOC(=O)C(=O)Nc1nc(-c2ccccc2)cs1 [Example 1, Ethyl-(4-phenyl-2-thiazolyl)-oxamate] |  | insoluble | 1 mg/kg | > 1000 mg/kg | 1 | 20% | insoluble | 25% | 
3 | CCOC(=O)C(=O)Nc1nc(-c2ccc(Cl)cc2)cs1 [Example 2, Ethyl-(4-p-chlorophenyl-2-thiazolyl)-oxamate] |  | insoluble |  | > 1000 mg/kg | 0 |  | insoluble | 4% | 1%
4 | CCOC(=O)C(=O)Nc1nc(-c2ccc(OC)cc2)cs1 [Example 3, Ethyl-(4-paramethoxyphenyl-2-thiazolyl)-oxamate] |  | insoluble | 2 mg/kg | > 1000 mg/kg | 1 |  | insoluble | 50% | 50%
5 | Cc1cccc(-c2csc(NC(=O)C(=O)OCc3ccccc3)n2)c1 [Example 4, Benzyl-(4-metamethylphenyl-2-thiazolyl)-oxamate] |  |  |  | > 1000 mg/kg | 1 |  |  |  | 
6 | O=C(Nc1nc(-c2ccccc2Br)cs1)C(=O)OCc1ccccc1 [Example 5, Benzyl-(4-orthobromophenyl-2-thiazolyl)-oxamate] |  |  |  | > 1000 mg/kg | 2 |  |  |  | 
